Assay results as given in the NIST ThermoML archive (doi:10.1016/j.jct.2016.07.005).

Assay: refractive index (Na D-line) (dimensionless); xn = mol fraction of the nth substance listed
Conditions: 100 kPa, Liquid, Standard Abbe refractometry

CN1CCC[C@H]1c1cccnc1 [(-)-3-(N-methylpyrrolidino)pyridine] + CC(O)CO
refractive index
Conditions | x1 = 0.1 | x1 = 0.2009 | x1 = 0.3 | x1 = 0.4016 | x1 = 0.5 | x1 = 0.6005 | x1 = 0.7 | x1 = 0.7983 | x1 = 0.9 | x1 = 1
293.15 K | 1.45151 | 1.46746 | 1.48003 | 1.4907 | 1.49923 | 1.50631 | 1.51219 | 1.51744 | 1.52199 | 1.52665
298.15 K | 1.44969 | 1.4656 | 1.47804 | 1.48864 | 1.49711 | 1.50413 | 1.50997 | 1.5152 | 1.51971 | 1.52439
303.15 K | 1.448 | 1.46377 | 1.47612 | 1.48662 | 1.49496 | 1.50195 | 1.50774 | 1.51296 | 1.51749 | 1.52214
308.15 K | 1.44622 | 1.46193 | 1.47424 | 1.48462 | 1.49301 | 1.49987 | 1.50568 | 1.51076 | 1.5153 | 1.51988
313.15 K | 1.44441 | 1.46029 | 1.4723 | 1.48255 | 1.49092 | 1.49774 | 1.50345 | 1.5087 | 1.51312 | 1.5179
318.15 K | 1.44265 | 1.45843 | 1.47031 | 1.48043 | 1.48871 | 1.49555 | 1.50118 | 1.50651 | 1.511 | 1.51592
323.15 K | 1.44081 | 1.45653 | 1.46833 | 1.47837 | 1.48665 | 1.49341 | 1.49904 | 1.50435 | 1.50881 | 1.51373

CN1CCC[C@H]1c1cccnc1 [(-)-3-(N-methylpyrrolidino)pyridine] + CCC(C)O
refractive index
Conditions | x1 = 0.1 | x1 = 0.2036 | x1 = 0.3 | x1 = 0.4 | x1 = 0.5 | x1 = 0.6 | x1 = 0.6956 | x1 = 0.8 | x1 = 0.9 | x1 = 1
293.15 K | 1.41889 | 1.43839 | 1.4542 | 1.46843 | 1.48084 | 1.49173 | 1.50103 | 1.51029 | 1.51858 | 1.52665
298.15 K | 1.41668 | 1.43618 | 1.45199 | 1.46621 | 1.47864 | 1.48952 | 1.4988 | 1.50803 | 1.51632 | 1.52439
303.15 K | 1.41438 | 1.43393 | 1.44972 | 1.46397 | 1.47644 | 1.48735 | 1.49664 | 1.50585 | 1.5141 | 1.52214
308.15 K | 1.41211 | 1.43166 | 1.44747 | 1.46172 | 1.4742 | 1.48511 | 1.49439 | 1.50359 | 1.51184 | 1.51988
313.15 K | 1.40979 | 1.42936 | 1.44519 | 1.45945 | 1.47192 | 1.48284 | 1.49217 | 1.50145 | 1.50978 | 1.5179
318.15 K | 1.40753 | 1.4271 | 1.44297 | 1.45725 | 1.46971 | 1.48065 | 1.49001 | 1.49933 | 1.50772 | 1.51592
323.15 K | 1.40509 | 1.42476 | 1.44065 | 1.45496 | 1.46747 | 1.47843 | 1.48779 | 1.49711 | 1.5055 | 1.51373

CN1CCC[C@H]1c1cccnc1 [(-)-3-(N-methylpyrrolidino)pyridine] + CCCCO
refractive index
Conditions | x1 = 0.1 | x1 = 0.196 | x1 = 0.3 | x1 = 0.3931 | x1 = 0.5 | x1 = 0.593 | x1 = 0.7 | x1 = 0.7931 | x1 = 0.9 | x1 = 1
293.15 K | 1.42126 | 1.44053 | 1.45673 | 1.46978 | 1.48302 | 1.49254 | 1.50289 | 1.51169 | 1.51909 | 1.52665
298.15 K | 1.41913 | 1.43825 | 1.45448 | 1.46759 | 1.48076 | 1.49031 | 1.50065 | 1.50945 | 1.51685 | 1.52439
303.15 K | 1.41697 | 1.43598 | 1.45225 | 1.46538 | 1.47856 | 1.48808 | 1.49847 | 1.50721 | 1.51463 | 1.52214
308.15 K | 1.41481 | 1.43367 | 1.45 | 1.46318 | 1.4763 | 1.48583 | 1.49623 | 1.50495 | 1.51238 | 1.51988
313.15 K | 1.4127 | 1.43148 | 1.44779 | 1.46096 | 1.47404 | 1.48355 | 1.49404 | 1.5028 | 1.51035 | 1.5179
318.15 K | 1.41058 | 1.42931 | 1.44562 | 1.45876 | 1.47184 | 1.48131 | 1.49183 | 1.50058 | 1.50823 | 1.51592
323.15 K | 1.40842 | 1.42705 | 1.44337 | 1.45655 | 1.46958 | 1.47906 | 1.48961 | 1.49837 | 1.50604 | 1.51373

CN1CCC[C@H]1c1cccnc1 [(-)-3-(N-methylpyrrolidino)pyridine] + OCCCO
refractive index
Conditions | x1 = 0.1 | x1 = 0.1999 | x1 = 0.3 | x1 = 0.3994 | x1 = 0.5 | x1 = 0.6004 | x1 = 0.7 | x1 = 0.8 | x1 = 0.9 | x1 = 1
293.15 K | 1.45763 | 1.47282 | 1.48522 | 1.49551 | 1.50314 | 1.50913 | 1.51461 | 1.51947 | 1.5228 | 1.52665
298.15 K | 1.4561 | 1.47118 | 1.4835 | 1.49364 | 1.50131 | 1.50702 | 1.51264 | 1.51729 | 1.52064 | 1.52439
303.15 K | 1.45463 | 1.46959 | 1.48179 | 1.49178 | 1.49939 | 1.5052 | 1.51056 | 1.51508 | 1.51845 | 1.52214
308.15 K | 1.45312 | 1.46793 | 1.48 | 1.48991 | 1.49739 | 1.50305 | 1.50843 | 1.51294 | 1.51623 | 1.51988
313.15 K | 1.45171 | 1.46637 | 1.47831 | 1.48799 | 1.49571 | 1.50113 | 1.50703 | 1.51089 | 1.51476 | 1.5179
318.15 K | 1.45006 | 1.46458 | 1.4764 | 1.48604 | 1.49341 | 1.49907 | 1.50429 | 1.50872 | 1.51216 | 1.51592
323.15 K | 1.44849 | 1.46287 | 1.4746 | 1.48415 | 1.49147 | 1.49703 | 1.50221 | 1.5066 | 1.50996 | 1.51373
